Assay results as given in ChEMBL document CHEMBL1201862, “PubChem BioAssay data set” (2004).
Active and inactive are the calls of the source.

How the values were obtained:
[1] = target: T1, Mucolipin-3 (Homo sapiens, UniProt Q8TDD5); test: Dose response cell-based high-throughput screening assay for agonists of the transient receptor potential channel ML3 (TRPML3). [Related pubchem assays: 1526, 1424, 1448 ]; type: functional
T1 sequence (Q8TDD5 whole entry): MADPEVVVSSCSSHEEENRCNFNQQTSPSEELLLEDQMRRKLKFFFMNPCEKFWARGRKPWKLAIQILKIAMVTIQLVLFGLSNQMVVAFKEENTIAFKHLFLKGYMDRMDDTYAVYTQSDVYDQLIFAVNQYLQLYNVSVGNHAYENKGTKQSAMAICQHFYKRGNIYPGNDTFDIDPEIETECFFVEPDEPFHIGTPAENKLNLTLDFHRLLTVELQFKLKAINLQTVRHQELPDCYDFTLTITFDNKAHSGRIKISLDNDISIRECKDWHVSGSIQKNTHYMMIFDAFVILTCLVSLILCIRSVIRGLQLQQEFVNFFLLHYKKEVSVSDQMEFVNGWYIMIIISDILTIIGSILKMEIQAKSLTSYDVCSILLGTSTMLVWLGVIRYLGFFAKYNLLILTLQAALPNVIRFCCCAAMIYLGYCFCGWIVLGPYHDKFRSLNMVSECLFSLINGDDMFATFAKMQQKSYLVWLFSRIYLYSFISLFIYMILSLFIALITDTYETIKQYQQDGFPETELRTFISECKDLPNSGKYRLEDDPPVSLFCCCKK

[2] = target: Ion channel NompC (Danio rerio, UniProt Q7T1G6); test: Fluorescence counterscreen assay for TRPML3 agonists: dose response cell-based high-throughput screening assay to identify agonists of the transient receptor potential channel N1 (TRPN1). [Related pubchem assays: 1526, 1424, 1448 ]; type: functional
[3] = P. falciparum 3D7-ScDHODH growth inhibitors, dose response, SYBR Green, dry powder samples (AID 1159570); type: functional, cell-based;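 note: parasite growth measured after 72 hours of compound exposure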
[4] = HepG2 cell cytotoxicity, dose response, cytotoxicity control, plate reader, dry powder samples (AID 1159569); type: functional, cell-based;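 note: inhibitor potency with signal falling toward the positive control level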
[5] = P. falciparum Dd2 growth inhibitors, dose response, SYBR Green, cherry-picked samples (AID 1159567); type: functional, cell-based
[6] = P. falciparum Dd2 growth inhibitors, dose response, SYBR Green, dry powder samples (AID 1159566); type: functional, cell-based;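 note: potency for growth inhibition with lower SYBR green DNA signal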
[7] = HepG2 cell cytotoxicity, dose response, cytotoxicity control, cherry-picked samples (AID 1159577); type: functional, cell-based
[8] = P. falciparum ATP4 D1247Y mutant growth inhibitors, dose response, NITD609-resistant line, SYBR Green, dry powder (AID 1159571); type: functional, cell-based;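 note: parasites synchronized at ring stage by sorbitol before testing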
[9] = inhibitors of intracellular T. cruzi replication, confirmation, NIH3T3 host cells, beta-gal luminescence (AID 2044); type: functional, cell-based;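 note: intracellular parasites grown in NIH/3T3 mouse fibroblasts as host cells; luminescent beta-galactosidase reporter signal from transgenic T. cruzi replicating inside host cells; inhibitors lower the luminescence signal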
[10] = cytotoxicity toward NIH3T3 fibroblasts, dose response, counter-screen, cell-based, ATP luminescence, mouse fibroblasts (AID 2010); type: functional;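 note: cells exposed to compound for about 90 hours before reading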
[11] = target: T2, Rac GTPase-activating protein 1 (Homo sapiens, UniProt Q9H0H5); test: MgcRacGAP GTPase-activating activity inhibitors, confirmation, biochemical, ADP Hunter fluorescence, primary and confirmatory (AID 624330); type: functional
T2 sequence (Q9H0H5 whole entry): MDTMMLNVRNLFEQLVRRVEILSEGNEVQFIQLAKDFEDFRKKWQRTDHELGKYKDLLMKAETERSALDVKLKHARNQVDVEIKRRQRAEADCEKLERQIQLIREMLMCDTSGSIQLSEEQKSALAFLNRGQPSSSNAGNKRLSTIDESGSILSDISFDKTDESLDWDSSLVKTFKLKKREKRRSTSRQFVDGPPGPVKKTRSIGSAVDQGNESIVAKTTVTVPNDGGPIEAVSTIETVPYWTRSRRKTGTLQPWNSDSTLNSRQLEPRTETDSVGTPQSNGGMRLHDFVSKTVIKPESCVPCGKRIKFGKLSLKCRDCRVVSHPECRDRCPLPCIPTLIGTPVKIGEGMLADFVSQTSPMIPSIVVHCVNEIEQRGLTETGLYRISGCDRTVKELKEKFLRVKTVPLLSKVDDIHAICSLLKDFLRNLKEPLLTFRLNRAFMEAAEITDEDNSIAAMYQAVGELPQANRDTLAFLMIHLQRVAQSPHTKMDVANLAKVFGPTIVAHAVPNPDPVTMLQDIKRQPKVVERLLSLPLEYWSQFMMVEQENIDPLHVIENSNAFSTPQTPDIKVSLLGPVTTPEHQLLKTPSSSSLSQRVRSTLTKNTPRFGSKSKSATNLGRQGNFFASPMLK

[12] = cells
[13] = inhibitors of firefly luciferase expression or activity, dose response, H4 neuroglioma cells, luminescence (AID 1990); type: functional, cell-based
[14] = luciferase reporter signal reduction – luminescence, H4-C neuroglioblastoma cells, dose response (AID 2458); type: functional, cell-based;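 note: H4 neuroglioblastoma cells stably carrying a luciferase reporter gene fusion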
[15] = cells; type: functional, cell-based
[16] = Luminescence Cell-Based Dose Response HTS to Identify Inhibitors of 5'UTR Stem-Loop Driven Prion Protein mRNA Translation in H4 Neuroglioblastoma Cells. [Related pubchem assays: 1827 (Project Summary), 1813 (Primary HTS)]; type: functional
[17] = inhibitors of SNCA 5'UTR-driven reporter translation, confirmation, H4 neuroglioma cells, luminescence (AID 1988); type: functional, cell-based
[18] = inhibitors of SNCA 5'UTR-driven translation, confirmation, luminescence, H4 neuroglioblastoma cells, dose confirmation (AID 2454); type: functional, cell-based;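 note: H4 neuroglioblastoma cells carrying an alpha-synuclein 5'UTR luciferase reporter; potency for inhibition of the luciferase signal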
[19] = system: INS1; test: beta cell apoptosis inhibitors, cytokine rescue, dose response, luminescence, retest (AID 449756); type: functional, cell-based; settings: Rattus norvegicus;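 note: cell death triggered by IL-1 beta plus TNF-alpha plus IFN-gamma mixture; protective hits raise ATP signal compared with cytokine alone wells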
[20] = A549 cell cytotoxicity, dose response, cytotoxicity control, plate reader, cherry-pick, antagonist series (AID 743412); type: functional, cell-based
[21] = HepG2 cell cytotoxicity, dose response, cytotoxicity control, plate reader, cherry-pick, antagonist series (AID 743416); type: functional, cell-based
[22] = LGR2 antagonists, dose response, cell-based, HEK293, CRE-luciferase reporter, cherry pick, set 2 (AID 743343); type: functional;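 note: transfected cells were stimulated with diluted bursicon conditioned medium after compound addition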
[23] = MC4R antagonists, dose response, counter-screen for LGR2 antagonist project, cell-based, plate reader, cherry pick (AID 743444); type: functional;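 note: transfected HEK 293 cells stimulated with alpha-MSH peptide; potency of inhibitors of the alpha-MSH evoked signal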
[24] = target: Estrogen receptor beta (Homo sapiens, UniProt Q92731); test: ERβ–SRC-3 coactivator interaction inhibitors, confirmation, orthogonal assay, biochemical, ELISA, streptavidin-HRP readout (AID 1060)
[25] = NIH-3T3 fibroblast cytotoxicity, dose response, cytotoxicity control, cell-based, fluorescence, Alamar Blue, secondary assay (AID 2327); type: functional;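 note: NIH-3T3 mouse fibroblasts cultured with fluconazole at 8 µg/mL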
[26] = C. albicans growth with fluconazole, confirmation, fluorescence, retest (AID 2467); type: functional, cell-based
[27] = target: Large T antigen (Simian virus 40, UniProt P03070); type: functional, Betapolyomavirus macacae;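 note: Confirmatory-stage PubChem screen for compounds that inhibit SV40 T antigen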
[28] = target: T3, Short transient receptor potential channel 4 (Mus musculus, UniProt Q9QUQ5); test: mouse TRPC4 channel inhibitors, dose response, cell-based, HEK293 TRPC4/mu-opioid, Fluo-4 calcium (AID 434942); type: functional;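 note: potency of inhibitors blocking the TRPC4 calcium response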
T3 sequence (Q9QUQ5 whole entry): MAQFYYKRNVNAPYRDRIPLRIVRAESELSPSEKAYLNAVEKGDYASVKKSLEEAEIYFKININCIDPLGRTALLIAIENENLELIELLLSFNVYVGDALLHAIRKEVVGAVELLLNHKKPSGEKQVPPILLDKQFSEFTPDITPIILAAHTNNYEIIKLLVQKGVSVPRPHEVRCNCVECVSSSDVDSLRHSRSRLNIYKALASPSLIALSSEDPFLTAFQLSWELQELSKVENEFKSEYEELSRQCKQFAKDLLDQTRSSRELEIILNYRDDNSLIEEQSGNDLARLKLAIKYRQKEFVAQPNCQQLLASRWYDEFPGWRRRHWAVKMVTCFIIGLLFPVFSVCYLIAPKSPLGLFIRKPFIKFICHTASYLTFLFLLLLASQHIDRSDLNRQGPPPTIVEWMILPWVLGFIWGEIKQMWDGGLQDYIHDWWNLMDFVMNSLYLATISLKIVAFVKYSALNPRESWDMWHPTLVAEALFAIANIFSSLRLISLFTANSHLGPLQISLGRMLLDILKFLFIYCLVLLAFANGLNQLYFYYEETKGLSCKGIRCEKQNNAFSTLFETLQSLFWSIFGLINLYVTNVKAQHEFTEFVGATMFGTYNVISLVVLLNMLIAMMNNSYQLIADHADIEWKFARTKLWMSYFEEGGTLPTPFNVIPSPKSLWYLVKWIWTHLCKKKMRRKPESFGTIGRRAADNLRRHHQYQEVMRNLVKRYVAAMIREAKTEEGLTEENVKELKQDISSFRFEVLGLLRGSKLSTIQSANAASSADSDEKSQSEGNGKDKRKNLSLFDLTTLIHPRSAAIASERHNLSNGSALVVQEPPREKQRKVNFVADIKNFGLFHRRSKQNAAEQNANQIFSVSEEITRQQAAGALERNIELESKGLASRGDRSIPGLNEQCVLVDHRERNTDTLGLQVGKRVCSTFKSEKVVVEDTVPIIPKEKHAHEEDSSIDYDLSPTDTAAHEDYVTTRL

[29] = system: HEK293; test: NOD1 signaling inhibitors, primary screen, cell-based, luminescence, uHTS (AID 1578); type: functional; settings: Homo sapiens
[30] = system: HEK293; test: cells; type: functional, cell-based; settings: Homo sapiens
[31] = system: HEK293; test: cells; type: functional, cell-based; settings: Homo sapiens; remark: listed apart in the source
[32] = target: Nucleotide-binding oligomerization domain-containing protein 2 (Homo sapiens, UniProt Q9HC29); test: NOD2 signaling inhibitors, cell-based, luminescence, uHTS, HEK293 (AID 1566); type: functional
[33] = system: HEK293; test: NOD2 signaling inhibitors in MDP-stimulated cells, cell-based, uHTS, luminescence (AID 2001); type: functional; settings: Homo sapiens
[34] = system: HEK293; test: cells; type: functional, cell-based; settings: Homo sapiens; remark: listed apart in the source
[35] = target: Mitogen-activated protein kinase 10 (Homo sapiens, UniProt P53779); test: Dose response biochemical screening assay for inhibitors of c-Jun N-Terminal Kinase 3 (JNK3). [Related pubchem assays: 746 ]
[36] = target: T4, Protein Tat (Human immunodeficiency virus type 1 group M subtype B (isolate HXB2)(HIV-1), UniProt P04608); type: functional;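 note: tat binding to TAR RNA read out by fluorescence polarization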
T4 sequence (P04608 whole entry): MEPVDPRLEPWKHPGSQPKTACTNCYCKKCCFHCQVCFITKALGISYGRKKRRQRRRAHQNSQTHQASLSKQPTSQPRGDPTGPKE

Ion channel NompC, sequence (Q7T1G6 whole entry): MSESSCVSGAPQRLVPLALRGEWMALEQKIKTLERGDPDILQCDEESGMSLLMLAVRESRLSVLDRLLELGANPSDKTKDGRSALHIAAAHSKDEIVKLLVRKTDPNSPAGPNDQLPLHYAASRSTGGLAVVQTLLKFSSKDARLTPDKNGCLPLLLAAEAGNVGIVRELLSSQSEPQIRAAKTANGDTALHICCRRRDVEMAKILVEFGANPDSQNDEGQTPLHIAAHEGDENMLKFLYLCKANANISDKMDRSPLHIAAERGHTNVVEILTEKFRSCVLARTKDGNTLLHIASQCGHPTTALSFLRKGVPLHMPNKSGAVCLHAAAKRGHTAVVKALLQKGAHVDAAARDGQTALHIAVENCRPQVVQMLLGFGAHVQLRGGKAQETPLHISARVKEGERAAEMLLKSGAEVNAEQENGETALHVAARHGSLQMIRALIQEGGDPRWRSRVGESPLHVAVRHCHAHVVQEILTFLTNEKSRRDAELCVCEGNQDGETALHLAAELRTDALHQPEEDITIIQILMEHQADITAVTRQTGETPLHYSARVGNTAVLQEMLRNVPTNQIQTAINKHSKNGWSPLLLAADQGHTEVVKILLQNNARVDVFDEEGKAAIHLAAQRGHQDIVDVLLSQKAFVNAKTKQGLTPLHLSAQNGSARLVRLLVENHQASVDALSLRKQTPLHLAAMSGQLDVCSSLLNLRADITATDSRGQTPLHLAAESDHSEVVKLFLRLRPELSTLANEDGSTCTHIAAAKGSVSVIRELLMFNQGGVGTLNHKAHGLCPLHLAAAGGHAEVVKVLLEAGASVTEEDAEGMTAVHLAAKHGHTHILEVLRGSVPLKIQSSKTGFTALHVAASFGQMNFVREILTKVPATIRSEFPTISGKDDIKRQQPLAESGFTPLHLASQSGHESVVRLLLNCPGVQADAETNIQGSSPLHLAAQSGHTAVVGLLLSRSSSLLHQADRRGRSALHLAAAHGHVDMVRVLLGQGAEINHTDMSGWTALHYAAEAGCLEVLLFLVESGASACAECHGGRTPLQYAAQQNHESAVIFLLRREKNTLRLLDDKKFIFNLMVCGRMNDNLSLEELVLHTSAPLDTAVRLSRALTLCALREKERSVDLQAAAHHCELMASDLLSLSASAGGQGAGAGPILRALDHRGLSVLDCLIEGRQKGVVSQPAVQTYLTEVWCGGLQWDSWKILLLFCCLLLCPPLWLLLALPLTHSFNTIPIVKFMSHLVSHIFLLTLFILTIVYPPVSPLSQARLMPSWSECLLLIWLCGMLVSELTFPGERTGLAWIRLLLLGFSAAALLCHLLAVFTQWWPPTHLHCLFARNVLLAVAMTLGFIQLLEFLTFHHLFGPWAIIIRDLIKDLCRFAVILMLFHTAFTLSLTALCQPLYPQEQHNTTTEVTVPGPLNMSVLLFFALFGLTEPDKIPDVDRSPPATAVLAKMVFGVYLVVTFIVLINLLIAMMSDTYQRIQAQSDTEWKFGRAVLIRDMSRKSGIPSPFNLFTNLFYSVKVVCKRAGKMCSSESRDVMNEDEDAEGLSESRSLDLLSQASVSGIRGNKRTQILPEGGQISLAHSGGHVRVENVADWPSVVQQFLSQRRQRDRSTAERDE
Large T antigen, sequence (P03070 whole entry): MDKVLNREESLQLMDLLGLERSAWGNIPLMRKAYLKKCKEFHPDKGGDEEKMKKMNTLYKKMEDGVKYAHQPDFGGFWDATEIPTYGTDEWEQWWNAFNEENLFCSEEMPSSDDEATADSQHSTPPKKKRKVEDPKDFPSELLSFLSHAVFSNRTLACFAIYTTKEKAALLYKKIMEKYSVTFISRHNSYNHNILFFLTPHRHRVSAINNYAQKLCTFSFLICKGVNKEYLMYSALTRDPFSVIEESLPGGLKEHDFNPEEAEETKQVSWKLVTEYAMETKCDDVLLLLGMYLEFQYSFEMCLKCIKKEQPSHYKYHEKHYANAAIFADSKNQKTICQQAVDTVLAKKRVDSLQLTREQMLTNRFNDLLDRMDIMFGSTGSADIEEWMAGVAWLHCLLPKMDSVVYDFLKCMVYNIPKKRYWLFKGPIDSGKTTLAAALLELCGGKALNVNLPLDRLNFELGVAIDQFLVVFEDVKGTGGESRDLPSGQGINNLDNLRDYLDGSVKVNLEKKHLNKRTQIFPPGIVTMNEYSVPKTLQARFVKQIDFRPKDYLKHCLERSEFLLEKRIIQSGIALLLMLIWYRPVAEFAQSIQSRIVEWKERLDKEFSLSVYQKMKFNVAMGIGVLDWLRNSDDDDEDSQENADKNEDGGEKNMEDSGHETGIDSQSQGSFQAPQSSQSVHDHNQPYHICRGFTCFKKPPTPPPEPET
Estrogen receptor beta, sequence (Q92731 whole entry): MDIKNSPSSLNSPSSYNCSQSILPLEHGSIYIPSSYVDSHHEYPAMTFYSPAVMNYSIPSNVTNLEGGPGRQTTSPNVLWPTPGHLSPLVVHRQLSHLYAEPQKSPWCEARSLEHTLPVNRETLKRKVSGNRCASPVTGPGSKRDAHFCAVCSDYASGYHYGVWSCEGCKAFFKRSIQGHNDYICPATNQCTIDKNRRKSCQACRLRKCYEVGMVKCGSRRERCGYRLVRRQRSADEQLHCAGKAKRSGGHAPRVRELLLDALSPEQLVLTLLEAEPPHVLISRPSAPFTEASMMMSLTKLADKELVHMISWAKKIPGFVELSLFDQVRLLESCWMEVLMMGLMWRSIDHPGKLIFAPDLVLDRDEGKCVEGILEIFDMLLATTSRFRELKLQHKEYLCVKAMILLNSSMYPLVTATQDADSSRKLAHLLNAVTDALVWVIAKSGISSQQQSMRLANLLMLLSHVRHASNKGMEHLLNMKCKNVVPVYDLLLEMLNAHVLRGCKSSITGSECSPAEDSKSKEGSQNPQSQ
Nucleotide-binding oligomerization domain-containing protein 2, sequence (Q9HC29 whole entry, the tested form may be a part): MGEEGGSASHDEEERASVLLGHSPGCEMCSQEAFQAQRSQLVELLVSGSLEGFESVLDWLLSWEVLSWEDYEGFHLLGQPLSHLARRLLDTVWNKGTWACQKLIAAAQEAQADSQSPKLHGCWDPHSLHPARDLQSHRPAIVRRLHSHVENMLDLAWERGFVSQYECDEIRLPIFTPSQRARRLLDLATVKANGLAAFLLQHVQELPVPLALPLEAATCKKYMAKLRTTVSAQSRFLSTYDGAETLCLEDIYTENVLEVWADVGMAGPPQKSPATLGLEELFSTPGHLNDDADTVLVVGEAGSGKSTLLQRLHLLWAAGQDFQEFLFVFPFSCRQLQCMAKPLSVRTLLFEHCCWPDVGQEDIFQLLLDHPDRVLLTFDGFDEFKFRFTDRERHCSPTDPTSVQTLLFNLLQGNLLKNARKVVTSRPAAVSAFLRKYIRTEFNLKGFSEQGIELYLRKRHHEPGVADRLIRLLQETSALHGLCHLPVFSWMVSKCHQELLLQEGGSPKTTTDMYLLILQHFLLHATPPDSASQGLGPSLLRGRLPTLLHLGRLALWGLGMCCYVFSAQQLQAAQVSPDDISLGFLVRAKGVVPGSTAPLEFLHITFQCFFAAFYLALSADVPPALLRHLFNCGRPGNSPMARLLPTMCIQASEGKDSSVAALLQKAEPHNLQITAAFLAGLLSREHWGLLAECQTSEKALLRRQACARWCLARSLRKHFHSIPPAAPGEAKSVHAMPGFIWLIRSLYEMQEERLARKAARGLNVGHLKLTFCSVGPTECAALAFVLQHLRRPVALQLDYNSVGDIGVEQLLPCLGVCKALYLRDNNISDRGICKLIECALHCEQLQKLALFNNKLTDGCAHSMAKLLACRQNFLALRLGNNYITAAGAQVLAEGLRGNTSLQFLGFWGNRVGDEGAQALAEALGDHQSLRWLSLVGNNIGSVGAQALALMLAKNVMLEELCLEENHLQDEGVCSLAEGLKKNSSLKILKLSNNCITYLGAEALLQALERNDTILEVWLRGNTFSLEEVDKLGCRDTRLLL
Mitogen-activated protein kinase 10, sequence (P53779 whole entry): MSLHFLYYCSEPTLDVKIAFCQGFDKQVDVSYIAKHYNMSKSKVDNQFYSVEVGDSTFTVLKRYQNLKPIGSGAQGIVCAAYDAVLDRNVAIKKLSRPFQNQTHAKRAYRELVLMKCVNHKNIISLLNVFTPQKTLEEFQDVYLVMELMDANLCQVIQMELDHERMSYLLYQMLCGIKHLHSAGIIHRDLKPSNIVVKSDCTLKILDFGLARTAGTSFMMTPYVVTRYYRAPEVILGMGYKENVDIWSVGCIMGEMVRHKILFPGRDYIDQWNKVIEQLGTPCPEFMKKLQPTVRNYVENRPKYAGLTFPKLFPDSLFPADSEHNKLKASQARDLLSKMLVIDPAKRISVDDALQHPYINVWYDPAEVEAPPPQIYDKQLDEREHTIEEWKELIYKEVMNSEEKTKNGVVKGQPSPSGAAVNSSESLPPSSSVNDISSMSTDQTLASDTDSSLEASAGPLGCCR

SMILES: O=S(=O)(c1ccccc1)C1(S(=O)(=O)c2ccccc2)CCCC1
- EC50 [1]: 5.62 µM (active)
- EC50 [2]: > 29.9 µM (not active)

SMILES: COc1ccccc1S(=O)(=O)N(C)C[C@@H]1Oc2cc(C#CCC3CCCC3)ccc2S(=O)(=O)N([C@H](C)CO)C[C@H]1C
- AC50 [3]: 0.227 µM (active)
- AC50 [4]: 23.8 µM (active)
- AC50 [5]: 0.309 µM (active)
- AC50 [6]: 0.146 µM (active)
- AC50 [7]: 28.6 µM (active)
- AC50 [8]: 0.104 µM (active)

SMILES: Cc1cc(Cl)c(OCCOCCN2CCN(C)CC2)c(Br)c1
- EC50 [9]: < 0.1 µM (active)
- EC50 [10]: > 60 µM (not active)
- IC50 [11]: 63.9 µM (active)
- EC50 [12]: 0.294 µM (active)

SMILES: CC1(c2ccccc2)CC(C)(C)N(C(=O)c2cc([N+](=O)[O-])cc([N+](=O)[O-])c2)c2ccccc21 (stereo not drawn)
- EC50 [9]: < 0.1 µM (active)
- EC50 [10]: 5.58 µM (active)
- EC50 [12]: 0.214 µM (active)

SMILES: O=C(CN1C(=O)c2ccccc2S1(=O)=O)c1ccc(F)cc1
- EC50 [13]: 11.4 µM (active)
- EC50 [14]: 1.12 µM (active)
- EC50 [15]: 1.87 µM (active)
- EC50 [16]: < 0.1 µM (active)
- EC50 [17]: 5.89 µM (active)
- EC50 [18]: 2.32 µM (active)
- AC50 [19]: > 260 µM (inactive)
- AC50 [20]: > 52 µM (inactive)
- AC50 [21]: > 52 µM (inactive)
- AC50 [22]: 2.75 µM (active)
- AC50 [23]: 3.02 µM (active)

SMILES: COc1ccc(N(C)S(=O)(=O)c2ccc(C)cc2)c([N+](=O)[O-])c1
- EC50 [1]: 3.13 µM (active)
- EC50 [2]: > 29.9 µM (not active)

SMILES: CN1CCN(CC(=O)Nc2sc3c(c2C#N)CCCC3)CC1
- IC50 [24]: 15 µM (not active)

SMILES: COc1ccc2c3c(n(C)c2c1)[C@H](CO)NCC31CCN(CC2CCCC2)CC1
- AC50 [3]: 0.449 µM (active)
- AC50 [4]: 46.3 µM (active)
- AC50 [5]: 0.738 µM (active)
- AC50 [6]: 0.481 µM (active)
- AC50 [7]: 35.5 µM (active)
- AC50 [8]: 0.425 µM (active)

SMILES: CCCC[n+]1c2ccccc2cc2ccccc21
- EC50 [25]: > 150 µM (inactive)
- EC50 [26]: 0.604 µM (active)
- IC50 [27]: 42.4 µM (active)
- EC50 [9]: < 0.1 µM (active)
- EC50 [10]: > 60 µM (not active)
- EC50 [28]: 4.22 µM (active)
- EC50 [12]: 0.041 µM (active)

SMILES: O=C(C1=C(O)C(=O)N(c2nccs2)C1c1ccccc1)c1ccc2c(c1)OCCO2 (stereo not drawn)
- EC50 [13]: 0.146 µM (active)
- EC50 [14]: 4.2 µM (active)
- EC50 [29]: 11.5 µM (active)
- IC50 [30]: > 20 µM (inactive)
- EC50 [15]: 1.11 µM (active)
- EC50 [16]: < 0.1 µM (active)
- EC50 [17]: 7.17 µM (active)
- IC50 [31]: > 20 µM (inactive)
- EC50 [32]: 5.45 µM (active)
- IC50 [33]: 18.6 µM (inactive)
- IC50 [34]: > 20 µM (inactive)
- EC50 [18]: 1.93 µM (active)

SMILES: COc1cccc2c(O)c(C/C=C(/C)Cl)c(C)nc12
- IC50 [35]: 75 µM (not active)

SMILES: Cc1cc(C(C)c2ccccc2)c(O)c(CN2CCOCC2)c1C (stereo not drawn)
- EC50 [1]: 5.07 µM (active)
- EC50 [2]: > 29.9 µM (not active)
- IC50 [36]: > 100 µM (active)
